Like-named read-outs stand apart in the source and are kept apart here.
How the values were obtained:
[1] = tested on: Mycosphaerella graminicola; Anamorph: Septoria tritici; assay: Leaf Blotch of Wheat (SEPTTR) disease control; format: in vivo; conditions: Zymoseptoria tritici
Procedure, shortened: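 Protective or curative format: Septoria tritici inoculation either preceded or followed fungicide application to first-leaf Yuma wheat. Severity scored 0–100%; control expressed versus untreated.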

[2] = tested on: Puccinia triticina; Synonym: Puccinia recondite f. Sp. Tritici; assay: Wheat Brown Rust (PUCCRT) disease control; format: in vivo; conditions: Puccinia triticina, topical
Procedure, shortened: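 Brown rust on first-leaf Yuma wheat: spore inoculation before or after spray application (acetone/Triton X-100 solution, or EC with Trycol in track spray), overnight 100% RH at 22 °C, disease developed at 24 °C. Severity scored 0–100% and converted to percent control against untreated.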

[3] = 24 h, 1 Day Protectant, rate 100 ppm, read-out: SEPTTR 1 DP disease control
[4] = 24 h, 1 Day Protectant, rate 121.5 g/H, read-out: SEPTTR 1 DP disease control
[5] = 72 h, 3 Day Curative, rate 100 ppm, read-out: SEPTTR 3 DC disease control
[6] = 72 h, 3 Day Curative, rate 121.5 g/H, read-out: SEPTTR 3 DC disease control
[7] = 24 h, 1 Day Protectant, rate 100 ppm, read-out: PUCCRT 1 DP disease control
[8] = 24 h, 1 Day Protectant, rate 121.5 g/H, read-out: PUCCRT 1 DP disease control
[9] = 72 h, 3 Day Curative, rate 100 ppm, read-out: PUCCRT 3 DC disease control
[10] = 72 h, 3 Day Curative, rate 121.5 g/H, read-out: PUCCRT 3 DC disease control
[11] = 24 h, Wheat Leaf Blotch, 1 Day Protectant, rate 100 ppm (high volume application), read-out: Disease control SEPTTR 1 DP
[12] = 24 h, Wheat Leaf Blotch, 1 Day Protectant, rate 121.5 g/H (low volume application), read-out: Disease control SEPTTR 1 DP
[13] = 72 h, Wheat Leaf Blotch, 3 Day Curative, rate 100 ppm (high volume application), read-out: Disease control SEPTTR 3 DC
[14] = 72 h, Wheat Leaf Blotch, 3 Day Curative, rate 121.5 g/H (low volume application), read-out: Disease control SEPTTR 3 DC
[15] = 24 h, Wheat Brown Rust, 1 Day Protectant, rate 100 ppm (high volume application), read-out: Disease control PUCCRT 1 DP
[16] = 24 h, Wheat Brown Rust, 1 Day Protectant, rate 121.5 g/H (low volume application), read-out: Disease control PUCCRT 1 DP
[17] = 72 h, Wheat Brown Rust, 3 Day Curative, rate 121.5 g/H (low volume application), read-out: Disease control PUCCRT 3 DC

Row | Compound | pest or weed control at 100 ppm [1, 3] [%] | pest or weed control at 121.5 g/ha [1, 4] [%] | pest or weed control at 100 ppm [1, 5] [%] | pest or weed control at 121.5 g/ha [1, 6] [%] | pest or weed control at 100 ppm [2, 7] [%] | pest or weed control at 121.5 g/ha [2, 8] [%] | pest or weed control at 100 ppm [2, 9] [%] | pest or weed control at 121.5 g/ha [2, 10] [%] | pest or weed control at 100 ppm [1, 11] [%] | pest or weed control at 121.5 g/ha [1, 12] [%] | pest or weed control at 100 ppm [1, 13] [%] | pest or weed control at 121.5 g/ha [1, 14] [%] | pest or weed control at 100 ppm [2, 15] [%] | pest or weed control at 121.5 g/ha [2, 16] [%] | pest or weed control at 121.5 g/ha [2, 17] [%] | pest or weed control at 100 ppm ([2]; 72 h, Wheat Brown Rust, 3 Day Curative, rate 100 ppm (high volume application), read-out: Disease control PUCCRT 3 DC) [%]
1 | COc1ccnc(C(=O)N[C@H]2CCC[C@H](CC3CCCCC3)[C@@H](OCC3CC3)[C@H](C)OC2=O)c1OCOC(C)=O [Compound F97] | 80 to 100 | 80 to 100 | 80 to 100 | 80 to 100 | 80 to 100 | 80 to 100 | 80 to 100 | 80 to 100 | – | – | – | – | – | – | – | –
2 | CCOCC(=O)OCOc1c(OC)ccnc1C(=O)N[C@H]1CCC[C@H](Cc2ccc(C)cc2)[C@@H](OCCCC(F)(F)F)[C@H](C)OC1=O [Compound F190, ((4-methoxy-2-(((3S,7R,8R,9S)-9-methyl-7-(4-methylbenzyl)-2-oxo-8-(4,4,4-trifluorobutoxyl)oxonan-3-yl)carbamoyl)pyridin-3-yl)oxy)methyl 2-ethoxyacetate] | – | – | – | – | – | – | – | – | 80 to 100 | 80 to 100 | 80 to 100 | 80 to 100 | 80 to 100 | 80 to 100 | 0 to 80 | –
3 | COc1ccnc(C(=O)N[C@H]2CCC[C@H](CC3CCCCC3)[C@@H](OCC3CC3)[C@H](C)OC2=O)c1O [Compound F9, N-((3S,7R,8R,9S)-7-(cyclohexylmethyl)-8-(cyclopropylmethoxy)-9-methyl-2-oxooxonan-3-yl)-3-hydroxy-4-methoxypicolinamide] | 80 to 100 | – | 80 to 100 | – | 80 to 100 | – | 80 to 100 | – | – | – | – | – | – | – | – | –
4 | COc1ccnc(C(=O)N[C@H]2CCC[C@H](CCC(C)C)[C@@H](OCC3CC3)[C@H](C)OC2=O)c1O [Compound F3] | 80 to 100 | – | 80 to 100 | – | 80 to 100 | – | 80 to 100 | – | – | – | – | – | – | – | – | –
5 | CCCO[C@@H]1[C@@H](CC2CCCC2)CCC[C@H](NC(=O)c2nccc(OC)c2OC(C)=O)C(=O)O[C@H]1C [Compound F74] | 80 to 100 | 80 to 100 | 80 to 100 | 80 to 100 | 80 to 100 | 80 to 100 | 80 to 100 | 0 to 80 | – | – | – | – | – | – | – | –
6 | COc1ccnc(C(=O)N[C@H]2CCC[C@H](Cc3ccc(F)cc3)[C@@H](Oc3ccccc3)[C@H](C)OC2=O)c1OCOC(C)=O [Compound F99] | 80 to 100 | 80 to 100 | 80 to 100 | 80 to 100 | 80 to 100 | 80 to 100 | 80 to 100 | 0 to 80 | – | – | – | – | – | – | – | –
7 | COc1ccnc(C(=O)N[C@H]2CCC[C@H](CC3CCCC3)[C@@H](OCC3CC3)[C@H](C)OC2=O)c1O [Compound F31] | 80 to 100 | – | 80 to 100 | – | 80 to 100 | – | 80 to 100 | – | – | – | – | – | – | – | – | –
8 | COc1ccnc(C(=O)N[C@H]2CCC[C@H](CC3CCCC3)[C@@H](OCC(C)C)[C@H](C)OC2=O)c1OC(C)=O [Compound F75] | 80 to 100 | 80 to 100 | 80 to 100 | 80 to 100 | 80 to 100 | 80 to 100 | 80 to 100 | 0 to 80 | – | – | – | – | – | – | – | –
9 | COCCC(=O)Oc1c(OC)ccnc1C(=O)N[C@H]1CCC[C@H](CC2CCCC2)[C@@H](OCC2CC2)[C@H](C)OC1=O [Compound F194] | – | – | – | – | – | – | – | – | 80 to 100 | 80 to 100 | 80 to 100 | 80 to 100 | 80 to 100 | 80 to 100 | 0 to 80 | 80 to 100
10 | COc1ccnc(C(=O)N[C@H]2CCC[C@H](C)[C@@H](OCc3ccccc3)[C@H](C)OC2=O)c1O [Compound F39] | 80 to 100 | – | 0 to 80 | – | 80 to 100 | – | 80 to 100 | – | – | – | – | – | – | – | – | –
11 | COc1ccnc(C(=O)N[C@H]2CCC[C@H](CCC(C)C)[C@@H](OC)[C@H](C)OC2=O)c1OCOC(C)=O [Compound F95] | 80 to 100 | 80 to 100 | 80 to 100 | 0 to 80 | 80 to 100 | 80 to 100 | 80 to 100 | 0 to 80 | – | – | – | – | – | – | – | –
12 | COc1ccnc(C(=O)N[C@H]2CCC[C@H](CC(F)F)[C@@H](Oc3ccccc3)[C@H](C)OC2=O)c1O [Compound F53] | 80 to 100 | – | 0 to 80 | – | 80 to 100 | – | 80 to 100 | – | – | – | – | – | – | – | – | –
13 | COc1ccnc(C(=O)N[C@H]2CCC[C@H](Cc3ccc(F)cc3)[C@@H](OC(=O)C(C)C)[C@H](C)OC2=O)c1OCOC(C)=O [Compound F105] | 80 to 100 | 80 to 100 | 80 to 100 | 80 to 100 | – | 80 to 100 | 80 to 100 | 80 to 100 | – | – | – | – | – | – | – | –
14 | COc1ccnc(C(=O)N[C@H]2CCC[C@H](CCOc3ccccc3)[C@@H](OCC3CC3)[C@H](C)OC2=O)c1OC(C)=O [Compound F84] | 80 to 100 | 0 to 80 | 80 to 100 | – | 80 to 100 | 80 to 100 | 80 to 100 | 80 to 100 | – | – | – | – | – | – | – | –
15 | COc1ccnc(C(=O)N[C@H]2CCC[C@H](Cc3ccc(F)cc3)[C@@H](OCC(F)F)[C@H](C)OC2=O)c1O [Compound F15] | 80 to 100 | – | 80 to 100 | – | 80 to 100 | – | 80 to 100 | – | – | – | – | – | – | – | – | –
16 | COc1ccnc(C(=O)N[C@H]2CCC[C@H](CC3CCCC3)[C@@H](OCC3CC3)[C@H](C)OC2=O)c1OC(C)=O [Compound F73] | 80 to 100 | 80 to 100 | 80 to 100 | 80 to 100 | 80 to 100 | 80 to 100 | 80 to 100 | 80 to 100 | – | – | – | – | – | – | – | –
17 | CC[C@H]1CCC[C@H](NC(=O)c2nccc(OC)c2O)C(=O)O[C@@H](C)[C@@H]1OCC(C)C [Compound F48] | 80 to 100 | – | 80 to 100 | – | 80 to 100 | – | 80 to 100 | – | – | – | – | – | – | – | – | –
18 | COc1ccnc(C(=O)N[C@H]2CCC[C@H](CCOCC3CC3)[C@@H](OCC3CC3)[C@H](C)OC2=O)c1OCOC(=O)C(C)C [Compound F156] | 0 to 80 | 0 to 80 | 0 to 80 | 0 to 80 | 80 to 100 | 80 to 100 | 80 to 100 | 80 to 100 | – | – | – | – | – | – | – | –
19 | COc1ccnc(C(=O)N[C@H]2CCC[C@H](Cc3ccc(F)cc3)[C@@H](Oc3ccccc3)[C@H](C)OC2=O)c1OC(C)=O [Compound F68] | 80 to 100 | 80 to 100 | 80 to 100 | 80 to 100 | 80 to 100 | 80 to 100 | 80 to 100 | 0 to 80 | – | – | – | – | – | – | – | –
20 | COc1ccc(C[C@H]2CCC[C@H](NC(=O)c3nccc(OC)c3OCOC(C)=O)C(=O)O[C@@H](C)[C@@H]2OCC2CC2)cc1 [Compound F116] | 80 to 100 | 80 to 100 | 80 to 100 | 80 to 100 | 80 to 100 | 80 to 100 | 80 to 100 | 80 to 100 | – | – | – | – | – | – | – | –
21 | COc1ccnc(C(=O)N[C@H]2CCC[C@H](Cc3ccccc3)[C@@H](OCC(C)C)[C@H](C)OC2=O)c1O [Compound F18] | 80 to 100 | – | 80 to 100 | – | 80 to 100 | – | 0 to 80 | – | – | – | – | – | – | – | – | –

Source: patent publication US9265253B2, “Use of macrocyclic picolinamides as fungicides” (DOW AGROSCIENCES LLC, priority 2013, dated 2016)
